Measured values: patent US20220226298A1, “GPR40 AGONISTS” (Kallyope, Inc., priority 2019, published 2022)

Biological target: T1, human GPR40 (Homo sapiens, UniProt O14842)
T1 construct: host or cells: CHO-K1
Assay: Inositol phosphate accumulation assay (IP1 HTRF) in CHO-K1 cells expressing human GPR40
Type: cell-based
Conditions: 90 min stimulation
Experimental: CHO-KI cells expressing human GPR40 were purchased from DiscoverX (95-1005C2). HEK293 cells expressing mouse FFAR1 were prepared using a mouse FFAR1 carrying plasmid purchased from OriGene Technologies (MR222997). The cells were transfected using Lipofectamine 2000 using manufacturer instructions and stable cell line was established from a single cell using geneticine selection. Assay ready frozen (ARF) cells were prepared and used throughout the study.
The assay was performed in a 384-well plate format using IP1 assay kit from Cis-Bio. ARF cells expressing FFAR1 (mouse and human) were thawed, washed and then plated in the appropriate medium (F12 based medium for CHO hFFAR1 and DMEM based medium for HEK293 mFFAR1—both were supplemented with 10% FBS and penicillin/streptomycin). 20 μL of 3.5×10^5 cells/mL were plated on a Poly D-Lysine coated 384-well white plate. The cells were then incubated for 16 hr at 37° C./5% CO2. After 16 hr the medium was removed and 15 μL of stimulation buffer containing the test compounds was added to the cells. The plates were then incubated for 90 min at 37° C./5% CO2. 5 μL of detection buffer (prepared as described in the IP-one kit) was added to each well and the plates were incubated at RT for 1 hr.
[…] was measured using ClarioSTAR plate reader, calculating the ratio between emissions at 665 nm and 620 nm (HTRF ratio). HTRF ratio for positive (Max) and negative (Min) controls were used to normalize HTRF data and generate values for % activity. EC50 and Max activity values were determined using a standard 4-parameter fit.

T1 sequence (O14842 whole entry): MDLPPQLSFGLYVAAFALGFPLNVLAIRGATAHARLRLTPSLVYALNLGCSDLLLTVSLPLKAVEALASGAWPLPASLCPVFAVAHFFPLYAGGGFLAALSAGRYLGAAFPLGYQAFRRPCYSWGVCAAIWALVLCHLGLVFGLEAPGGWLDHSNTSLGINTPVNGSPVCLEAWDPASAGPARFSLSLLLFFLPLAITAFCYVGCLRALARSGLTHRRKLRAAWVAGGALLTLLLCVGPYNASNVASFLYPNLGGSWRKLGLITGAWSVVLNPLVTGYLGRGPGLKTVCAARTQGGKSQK

| SMILES | EC50 [nM] |
| --- | --- |
| COc1cc(-c2cc(C)c(C(=O)Oc3cccc([C@H](CP(C)(=O)O)C4CC4)c3)cc2CN(C(C)C)C(C)C)c(F)cn1 (single isomer, unassigned) [Compound 71a] | > 500 |
| COc1cc(-c2cc(C)c(C(=O)Oc3cccc([C@@H](CP(C)(=O)O)C4CC4)c3)cc2CN(C(C)C)C(C)C)c(F)cn1 (single isomer, unassigned) [Compound 71b] | > 500 |
| COc1ccc(F)c(-c2ccc(C(=O)Oc3cccc([C@@H](CC(=O)O)C4CC4)c3)cc2)c1 [Compound 1, (S)-3-cyclopropyl-3-(3-((2′-fluoro-5′-methoxy-[1,1′-biphenyl]-4-carbonyl)oxy)phenyl) propanoic acid] | 10 to 100 |
| O=C(O)C[C@H](c1cccc(OC(=O)c2ccc(-c3cc(O)ccc3F)cc2)c1)C1CC1 [Compound 2] | 10 to 100 |
| COc1cc(-c2ccc(C(=O)Oc3cccc([C@@H](CC(=O)O)C4CC4)c3)cc2)c(F)cn1 [Compound 3] | 10 to 100 |
| COc1ccc(F)c(-c2ccc(C(=O)Oc3cccc([C@@H](CC(=O)O)C4CC4)c3)nc2)c1 [Compound 4] | > 500 |
| COc1ccc(F)c(-c2nocc2C(=O)Oc2cccc([C@@H](CC(=O)O)C3CC3)c2)c1 [Compound 5, (3S)-3-cyclopropyl-3-[3-[3-(2-fluoro-5-methoxy-phenyl)isoxazole-4-carbonyl]oxyphenyl]propanoic acid] | > 500 |
| COc1ccc(F)c(-c2ccc(C(=O)Oc3cccc([C@@H](CC(=O)O)C4CC4)c3)c(C)c2)c1 [Compound 6] | 10 to 100 |
| COc1ccc(F)c(-c2cc(C(=O)Oc3cccc([C@@H](CC(=O)O)C4CC4)c3)on2)c1 [Compound 7, (S)-3-cyclopropyl-3-(3-((3-(2-fluoro-5-methoxyphenyl)isoxazole-5-carbonyl)oxy)phenyl)propanoic acid] | > 500 |
| CC(c1cc(C(F)(F)F)ccc1C(F)(F)F)N1CCC(C(=O)Oc2cccc([C@@H](CC(=O)O)C3CC3)c2)C1 (stereo partly drawn) [Compound 8, (3S)-3-(3-((1-(1-(2,5-bis(trifluoromethyl)phenyl)ethyl)pyrrolidine-3-carbonyl)oxy)phenyl)-3-cyclopropylpropanoic acid] | 10 to 100 |
| CC(c1cc(C(F)(F)F)ccc1C(F)(F)F)N1CCC(C(=O)Oc2cccc([C@@H](CC(=O)O)C3CC3)c2)CC1 (stereo partly shown) [Compound 9] | 10 to 100 |
| COc1cc(-c2ccc(C(=O)Oc3cccc([C@@H](CC(=O)O)C4CC4)c3)c(C)c2)c(F)cn1 [Compound 10, (S)-3-cyclopropyl-3-(3-((4-(5-fluoro-2-methoxypyridin-4-yl)-2-methylbenzoyl)oxy)phenyl)propanoic acid] | 100 to 500 |
| CCN(Cc1cc(C(=O)Oc2cccc([C@@H](CC(=O)O)C3CC3)c2)c(C)cc1-c1cc(OC)ncc1F)C(C)C [Compound 11, (S)-3-cyclopropyl-3-(3-((5-((ethyl(isopropyl)amino)methyl)-4-(5-fluoro-2-methoxypyridin-4-yl)-2-methylbenzoyl)oxy)phenyl)propanoic acid] | 100 to 500 |
| CC(c1cc(C(F)(F)F)ccc1C(F)(F)F)N1CC(C)(C(=O)Oc2cccc([C@@H](CC(=O)O)C3CC3)c2)C1 (stereo partly shown) [Compound 12] | 10 to 100 |
| CCN(Cc1cc(-c2cc(OC)ncc2F)ccc1C(=O)Oc1cccc([C@@H](CC(=O)O)C2CC2)c1)C(C)C [Compound 13] | > 500 |
| COc1cc(-c2ccc(C(=O)Oc3cccc([C@H](C4CC4)[C@H](C)C(=O)O)c3)c(C)c2)c(F)cn1 [Compound 14] | ≤ 10 |
| COc1cc(-c2cc(F)c(C(=O)Oc3cccc([C@@H](CC(=O)O)C4CC4)c3)cc2CN(C(C)C)C(C)C)ccn1 [Compound 16, (S)-3-cyclopropyl-3-(3-((5-((diisopropylamino)methyl)-2-fluoro-4-(2-methoxypyridin-4-yl)benzoyl)oxy)phenyl)propanoic acid] | ≤ 10 |
| COc1cc(-c2ccc(C(=O)Oc3cccc([C@@H](CC(=O)O)C4CC4)c3)c(F)c2)ccn1 [Compound 17] | 100 to 500 |
| COc1cc(-c2cc(C)c(C(=O)Oc3cccc([C@@H](CC(=O)O)C4CC4)c3)c(F)c2)ccn1 [Compound 18] | 100 to 500 |
| COc1cc(-c2cc(C)c(C(=O)Oc3cccc([C@@H](CC(=O)O)C4CC4)c3)cc2CN(C(C)C)C(C)C)c(F)cn1 [Compound 19] | 10 to 100 |

| SMILES | EC50 [nM] |
| --- | --- |
| CC(c1cc(C(F)(F)F)ccc1C(F)(F)F)N1CCN(C(=O)Oc2cccc([C@@H](CC(=O)O)C3CC3)c2)CC1 (stereo partly drawn) [Compound 20, (3S)-3-(3-((4-(1-(2,5-bis(trifluoromethyl)phenyl)ethyl)piperazine-1-carbonyl)oxy)phenyl)-3-cyclopropylpropanoic acid] | 10 to 100 |
| COc1cc(-c2cc(C)c(C(=O)Oc3cccc([C@H](C4CC4)[C@H](C)C(=O)O)c3)cc2CN(C(C)C)C(C)C)c(F)cn1 [Compound 21, (2S,3R)-3-cyclopropyl-3-(3-((5-((diisopropylamino)methyl)-4-(5-fluoro-2-methoxypyridin-4-yl)-2-methylbenzoyl)oxy)phenyl)-2-methylpropanoic acid] | ≤ 10 |
| CC(c1cc(C(F)(F)F)ccc1C(F)(F)F)N1CCC(C(=O)Oc2cccc([C@H](C3CC3)[C@H](C)C(=O)O)c2)CC1 (stereo partly drawn) [Compound 22, (2S,3R)-3-(3-((1-(1-(2,5-bis(trifluoromethyl)phenyl)ethyl)piperidine-4-carbonyl)oxy)phenyl)-3-cyclopropyl-2-methylpropanoic acid] | ≤ 10 |
| COc1cc(-c2cnc(C(=O)Oc3cccc([C@@H](CC(=O)O)C4CC4)c3)cn2)c(F)cn1 [Compound 23] | > 500 |
| COc1cc(-c2cc(F)c(C(=O)Oc3cccc([C@H](C4CC4)[C@H](C)C(=O)O)c3)cc2CN(C(C)C)C(C)C)ccn1 [Compound 24] | ≤ 10 |
| COc1cc(-c2ccc(C(=O)Oc3cccc([C@H](C4CC4)[C@H](C)C(=O)O)c3)cc2)c(F)cn1 [Compound 25] | ≤ 10 |
| COc1cc(-c2ccc(C(=O)Oc3cccc([C@H](C4CC4)[C@H](C)C(=O)O)c3)cc2)ccn1 [Compound 27] | ≤ 10 |
| COc1cc(-c2ccc(C(=O)Oc3cccc([C@H](C4CC4)[C@H](C)C(=O)O)c3)cc2CN(C(C)C)C(C)C)ccn1 [Compound 28] | ≤ 10 |
| COc1cc(-c2ccc(C(=O)Oc3cccc([C@H](C4CC4)[C@H](C)C(=O)O)c3)c(C)c2)ccn1 [Compound 29] | ≤ 10 |
| CCN(Cc1cc(C(=O)Oc2cccc([C@H](C3CC3)[C@H](C)C(=O)O)c2)ccc1-c1cc(OC)ccc1F)C(C)C [Compound 30] | ≤ 10 |
| COc1ccc(C(=O)N(CC(C)(C)C)c2cccc(C)n2)c(-c2ccc(C(=O)Oc3cccc([C@H](C4CC4)[C@H](C)C(=O)O)c3)c(C)c2)c1 [Compound 31, (2S,3R)-3-cyclopropyl-3-(3-((5′-methoxy-3-methyl-2′-((6-methylpyridin-2-yl)(neopentyl)carbamoyl)-[1,1′-biphenyl]-4-carbonyl)oxy)phenyl)-2-methylpropanoic acid] | ≤ 10 |
| COc1cc(-c2ccc(C(=O)Oc3cccc([C@H](C4CC4)[C@H](C)C(=O)O)c3)cc2CN2CCCC2(C)C)c(F)cn1 [Compound 32] | ≤ 10 |
| COc1cc(-c2ccc(C(=O)Oc3cccc([C@H](C4CC4)[C@H](C)C(=O)O)c3)cc2CN2CCC(C)(C)C2)c(F)cn1 [Compound 33, (2S,3R)-3-cyclopropyl-3-[3-[3-[(3,3-dimethylpyrrolidin-1-yl)methyl]-4-(5-fluoro-2-methoxy-4-pyridyl)benzoyl]oxyphenyl]-2-methyl-propanoic acid] | ≤ 10 |
| CCN(Cc1cc(C(=O)Oc2cccc([C@H](C3CC3)[C@H](C)C(=O)O)c2)ccc1-c1cc(OC)ncc1F)C(C)C [Compound 34, (2S,3R)-3-cyclopropyl-3-(3-((3-((ethyl(isopropyl)amino)methyl)-4-(5-fluoro-2-methoxypyridin-4-yl)benzoyl)oxy)phenyl)-2-methylpropanoic acid] | ≤ 10 |
| COc1cc(-c2ccc(C(=O)Oc3cccc([C@H](C4CC4)[C@H](C)C(=O)O)c3)cc2CN(C[C@H](O)[C@@H](O)[C@H](O)[C@H](O)CO)C(C)C)c(F)cn1 [Compound 35, (2S,3R)-3-cyclopropyl-3-(3-((4-(5-fluoro-2-methoxypyridin-4-yl)-3-((isopropyl((2S,3R,4R,5R)-2,3,4,5,6-pentahydroxyhexyl)amino)methyl)benzoyl)oxy)phenyl)-2-methylpropanoic acid] | > 500 |
| CCN(Cc1cc(C(=O)Oc2cccc([C@H](C3CC3)[C@@](C)(F)C(=O)O)c2)ccc1-c1cc(OC)ncc1F)C(C)C [Compound 37] | ≤ 10 |
| CCN(Cc1cc(C(=O)Oc2cccc([C@H](C3CC3)[C@@](C)(F)C(=O)O)c2)ccc1-c1cc(OC)ccc1F)C(C)C [Compound 38] | ≤ 10 |
| COc1cc(-c2cc(F)c(C(=O)Oc3cccc([C@H](C4CC4)[C@@](C)(F)C(=O)O)c3)cc2CN(C(C)C)C(C)C)ccn1 [Compound 39] | ≤ 10 |
| COc1ccc(F)c([C@H]2CC[C@H](C(=O)Oc3cccc([C@H](C4CC4)[C@H](C)C(=O)O)c3)CC2)c1 [Compound 40, (2S,3R)-3-cyclopropyl-3-(3-(((1r,4R)-4-(2-fluoro-5-methoxyphenyl)cyclohexanecarbonyl)oxy)phenyl)-2-methylpropanoic acid] | ≤ 10 |
| COc1ccc(F)c(-c2ccc(OC(=O)c3cccc([C@@H](CC(=O)O)C4CC4)c3)cc2)c1 [Compound 41] | 100 to 500 |
